Experimental data published in patent publication US11566007B2, “Ras inhibitors” (Revolution Medicines, Inc., priority 2019, dated 2023).
pIC50: −log10 of the molar value. Where “and” joins values, the source holds several entries; their conditions need not be identical. Identical values can stand only once. Like-named read-outs stand apart in the source and are kept apart here.

What was measured:
KRAS G12S = KRAS G12S (Homo sapiens (Human), UniProt P01116+P62937, G12S); assay: Ras-Raf (BRAF RBD) disruption / FRET / MOA assay, KRAS G12S; type: biochemical; conditions: Ras-Raf disruption/FRET/MOA assay; class symbols; read-out: KRAS G12S FRET data IC50
Chain of KRAS G12S (P01116-2 other isoform, or with tags, fused parts or gaps G12S): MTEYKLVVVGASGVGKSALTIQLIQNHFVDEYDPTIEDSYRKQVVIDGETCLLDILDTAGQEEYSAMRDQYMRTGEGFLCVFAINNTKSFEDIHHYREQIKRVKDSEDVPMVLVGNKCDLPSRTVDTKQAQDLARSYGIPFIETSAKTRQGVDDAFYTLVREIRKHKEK
Chain of KRAS G12S (P62937 whole entry): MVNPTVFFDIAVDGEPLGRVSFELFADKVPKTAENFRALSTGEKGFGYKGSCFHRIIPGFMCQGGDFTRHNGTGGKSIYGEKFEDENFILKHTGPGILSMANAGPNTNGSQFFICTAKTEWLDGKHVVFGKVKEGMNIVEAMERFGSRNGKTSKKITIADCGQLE
In short: (§1)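 Ras:RAF disruption was scored as a fall in TR-FRET ratio relative to DMSO. Compound ranged in 3-fold steps over 10 points from 30 μM final; incubation ran 3 h at 25° C, detection antibodies a further 1.5 h. Reported as IC50.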

NRAS WT = NRAS WT (Homo sapiens (Human), UniProt P01111+P62937); assay: Ras-Raf (BRAF RBD) disruption / FRET / MOA assay, NRAS WT; type: biochemical; conditions: read-out: IC50* NRAS WT FRET data
Chain of NRAS WT (P01111 whole entry): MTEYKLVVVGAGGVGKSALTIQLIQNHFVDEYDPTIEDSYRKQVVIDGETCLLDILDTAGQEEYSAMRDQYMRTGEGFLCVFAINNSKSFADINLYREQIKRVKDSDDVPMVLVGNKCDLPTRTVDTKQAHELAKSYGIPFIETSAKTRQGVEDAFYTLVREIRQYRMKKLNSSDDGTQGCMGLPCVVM
Chain of NRAS WT (P62937 whole entry): as the sequence (P62937 whole entry) above
In short: (§2)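 TR-FRET disruption of nucleotide-loaded Ras binding to BRAF RBD via compound-driven ternary complex with cyclophilin A. Compound as 10-point 3-fold series from 30 μM final, 3 h at 25° C, then anti-His Eu-W1024 (10 nM) and anti-GST allophycocyanin (50 nM) for 1.5 h. IC50 from decreased FRET ratio versus DMSO.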

KRAS G12V = KRAS G12V (Homo sapiens (Human), UniProt P01116+P62937, G12V); assay: Ras-Raf (BRAF RBD) disruption / FRET / MOA assay, KRAS G12V; type: biochemical; conditions: read-out: IC50* KRAS G12V FRET data
Chain of KRAS G12V (P01116-2 other isoform, or with tags, fused parts or gaps G12V): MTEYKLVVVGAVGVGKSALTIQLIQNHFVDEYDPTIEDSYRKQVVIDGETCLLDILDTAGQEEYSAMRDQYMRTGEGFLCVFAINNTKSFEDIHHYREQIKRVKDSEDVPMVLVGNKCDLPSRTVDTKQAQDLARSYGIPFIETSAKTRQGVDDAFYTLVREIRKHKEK
Chain of KRAS G12V (P62937 whole entry): as the sequence (P62937 whole entry) above
In short: as §1

KRAS WT = KRAS WT (Homo sapiens (Human), UniProt P01116+P62937); assay: Ras-Raf (BRAF RBD) disruption / FRET / MOA assay, KRAS WT; type: biochemical; conditions: read-out: IC50* KRAS WT FRET data
Chain of KRAS WT (P01116-2 other isoform, or with tags, fused parts or gaps): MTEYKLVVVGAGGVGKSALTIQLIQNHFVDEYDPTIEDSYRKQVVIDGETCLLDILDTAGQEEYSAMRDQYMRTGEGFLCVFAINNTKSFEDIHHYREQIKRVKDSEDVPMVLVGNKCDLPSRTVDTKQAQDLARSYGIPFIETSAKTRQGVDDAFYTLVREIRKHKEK
Chain of KRAS WT (P62937 whole entry): as the sequence (P62937 whole entry) above
In short: as §1

NRAS Q61K = NRAS Q61K (Homo sapiens (Human), UniProt P01111+P62937, Q61K); assay: Ras-Raf (BRAF RBD) disruption / FRET / MOA assay, NRAS Q61K; type: biochemical; conditions: NRAS Q61K; Ras-Raf disruption/FRET/MOA assay; read-out: IC50* NRAS Q61K FRET data
Chain of NRAS Q61K (P01111 whole entry Q61K): as the sequence (P01111 whole entry) above, with Q61K counted along it
Chain of NRAS Q61K (P62937 whole entry): as the sequence (P62937 whole entry) above
In short: as §2

KRAS G12D = KRAS G12D (Homo sapiens (Human), UniProt P01116+P62937, G12D); assay: Ras-Raf (BRAF RBD) disruption / FRET / MOA assay, KRAS G12D; type: biochemical; conditions: Ras-Raf disruption/FRET/MOA assay; class symbols; read-out: KRAS G12D FRET data IC50
Chain of KRAS G12D (P01116-2 other isoform, or with tags, fused parts or gaps G12D): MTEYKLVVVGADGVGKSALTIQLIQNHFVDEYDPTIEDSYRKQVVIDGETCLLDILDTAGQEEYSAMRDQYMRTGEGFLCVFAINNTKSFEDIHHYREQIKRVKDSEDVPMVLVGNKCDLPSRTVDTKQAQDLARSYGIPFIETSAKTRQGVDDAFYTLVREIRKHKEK
Chain of KRAS G12D (P62937 whole entry): as the sequence (P62937 whole entry) above
In short: as §1

NRAS Q61R = NRAS Q61R (Homo sapiens (Human), UniProt P01111+P62937, Q61R); assay: Ras-Raf (BRAF RBD) disruption / FRET / MOA assay, NRAS Q61R; type: biochemical; conditions: NRAS Q61R; Ras-Raf disruption/FRET/MOA assay; read-out: IC50* NRAS Q61R FRET data
Chain of NRAS Q61R (P01111 whole entry Q61R): as the sequence (P01111 whole entry) above, with Q61R counted along it
Chain of NRAS Q61R (P62937 whole entry): as the sequence (P62937 whole entry) above
In short: as §2

KRAS G13D = KRAS G13D (Homo sapiens (Human), UniProt P01116+P62937, G13D); assay: Ras-Raf (BRAF RBD) disruption / FRET / MOA assay, KRAS G13D; type: biochemical
Chain of KRAS G13D (P01116-2 other isoform, or with tags, fused parts or gaps G13D): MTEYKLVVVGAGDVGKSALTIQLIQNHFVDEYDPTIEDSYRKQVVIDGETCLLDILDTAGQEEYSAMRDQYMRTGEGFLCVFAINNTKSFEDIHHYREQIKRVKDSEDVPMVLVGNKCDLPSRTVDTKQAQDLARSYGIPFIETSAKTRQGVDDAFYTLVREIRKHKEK
Chain of KRAS G13D (P62937 whole entry): as the sequence (P62937 whole entry) above
In short: as §1

K-Ras G13C = K-Ras G13C (Homo sapiens (Human), UniProt P01116+P62937, G13C); assay: Ras-Raf (BRAF RBD) disruption / FRET / MOA assay, KRAS G13C; type: biochemical; conditions: KRAS G13C; Ras-Raf disruption/FRET/MOA assay; read-out: IC50* KRAS G13C FRET data
Chain of K-Ras G13C (P01116-2 other isoform, or with tags, fused parts or gaps G13C): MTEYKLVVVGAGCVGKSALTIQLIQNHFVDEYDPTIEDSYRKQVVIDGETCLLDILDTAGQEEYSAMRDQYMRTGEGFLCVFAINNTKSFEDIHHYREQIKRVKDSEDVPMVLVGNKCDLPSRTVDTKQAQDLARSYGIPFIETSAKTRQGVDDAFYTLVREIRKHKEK
Chain of K-Ras G13C (P62937 whole entry): as the sequence (P62937 whole entry) above
In short: as §1

NCI-H358 (K-Ras G12C) = assay: CellTiter-Glo cell viability assay, NCI-H358; type: cell-based, human; conditions: class symbols; for pIC50: NCI-H358, 5-day treatment, read-out: Additional H358 Cell Viability assay data (K-Ras G12C, IC50)
In short: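 Luminescent viability readout on day 5 after direct compound addition to plated cells; plates sat ~30 min at room temperature before reading. Values expressed as percent of mean DMSO signal, curves fit with a four-parameter logistic model.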

[1] = read-out: IC50* KRAS G13D FRET data

SMILES	pIC50 (KRAS G12S)	pIC50 (NRAS WT)	pIC50 (KRAS G12V)	pIC50 (KRAS WT)	pIC50 (NRAS Q61K)	pIC50 (KRAS G12D)	pIC50 (NRAS Q61R)	pIC50 (KRAS G13D; [1])	pIC50 (K-Ras G13C)	pIC50 (NCI-H358 (K-Ras G12C); Homo sapiens, NCI-H358, 120 h)	pIC50 (NCI-H358 (K-Ras G12C))	pIC50 (KRAS G13D; IC50* KRAS G13D FRET data)	IC50 (NCI-H358 (K-Ras G12C); Homo sapiens, NCI-H358, 120 h, read-out: Additional H358 Cell Viability assay data (K-Ras G12C, IC50, uM), NCI-H358, 5-day treatment) [µM]
C=CC(=O)N1CC[C@H](C(=O)N(C)[C@H](C(=O)N[C@H]2Cc3cc(O)cc(c3)-c3ccc4c(c3)c(c(-c3cccnc3[C@H](CC)OC)n4CC)CC(C)(C)COC(=O)[C@@H]3CCCN(N3)C2=O)C(C)C)C1 (atropisomer, axis not shown) [Example A181]	5.00 to 6.00 and 7.00 to 8.00	6.00 to 7.00	6.00 to 7.00 and 5.00 to 6.00	6.00 to 7.00 and 5.00 to 6.00	6.00 to 7.00	5.00 to 6.00 and < 5.00	6.00 to 7.00	6.00 to 7.00 and 5.00 to 6.00	6.00 to 7.00 and 5.00 to 6.00	7.00 to 8.00			
C=CC(=O)N1CC[C@H](C(=O)N(C)[C@H](C(=O)N[C@H]2Cc3nc(ns3)-c3ccc4c(c3)c(c(-c3cccnc3[C@H](C)OC)n4CC)CC(C)(C)COC(=O)[C@@H]3CCCN(N3)C2=O)C(C)C)C1 (atropisomer, axis not shown) [Example A202]	5.00 to 6.00	5.00 to 6.00	< 5.00	< 5.00	5.00 to 6.00	< 5.00	< 5.00	< 5.00	< 5.00	7.00 to 8.00			
C=CC(=O)N1CC[C@H](C(=O)N(C)[C@H](C(=O)N[C@H]2Cc3cc(O)cc(c3)-c3ccc4c(c3)c(c(-c3cccnc3[C@@H](OC)C3CC3)n4CC)CC(C)(C)COC(=O)[C@@H]3CCCN(N3)C2=O)C(C)C)C1 (atropisomer, axis not shown) [Example A207]	6.00 to 7.00	6.00 to 7.00		6.00 to 7.00	6.00 to 7.00	5.00 to 6.00	6.00 to 7.00	6.00 to 7.00	6.00 to 7.00		7.00 to 8.00		
C=CC(=O)N1CC[C@H](C(=O)N(C)[C@H](C(=O)N[C@H]2Cc3cc(O)cc(c3)-c3ccc4c(c3)c(c(-c3cccnc3[C@@H]3CCCO3)n4CC)CC(C)(C)COC(=O)[C@@H]3CCCN(N3)C2=O)C(C)C)C1 (atropisomer, axis not shown) [Example A281]	6.00 to 7.00	6.00 to 7.00	6.00 to 7.00	6.00 to 7.00	6.00 to 7.00	5.00 to 6.00	6.00 to 7.00	6.00 to 7.00	7.00 to 8.00 and 6.00 to 7.00	7.00 to 8.00			
C=CC(=O)N1CC[C@H](C(=O)N(C)[C@H](C(=O)N[C@H]2Cc3nc(n(C)n3)-c3ccc4c(c3)c(c(-c3cccnc3[C@H](C)OC)n4CC)CC(C)(C)COC(=O)[C@@H]3CCCN(N3)C2=O)C(C)C)C1 (atropisomer, axis not shown) [Example A314]	5.00 to 6.00	5.00 to 6.00	5.00 to 6.00	5.00 to 6.00	6.00 to 7.00	5.00 to 6.00	6.00 to 7.00	5.00 to 6.00	6.00 to 7.00	6.00 to 7.00			
C=CC(=O)N1CC[C@H](C(=O)N(C)[C@H](C(=O)N[C@H]2Cc3csc(n3)-c3ccc4c(c3)c(c(-c3cccnc3[C@H](C)OC)n4CC)CC(C)(C)COC(=O)[C@@H]3CCCN(N3)C2=O)C(C)C)C1 (atropisomer, axis not shown) [Example A330]	5.00 to 6.00	5.00 to 6.00	5.00 to 6.00	5.00 to 6.00	6.00 to 7.00	5.00 to 6.00	5.00 to 6.00	5.00 to 6.00	5.00 to 6.00	7.00 to 8.00			
C=CC(=O)N1CC[C@]2(C1)CN(C(=O)N(C)[C@H](C(=O)N[C@H]1Cc3nc(cs3)-c3ccc4c(c3)c(c(-c3cccnc3[C@H](C)OC)n4CC)CC(C)(C)COC(=O)[C@@H]3CCCN(N3)C1=O)C(C)C)CCO2 (atropisomer, axis not shown) [Example A354]	6.00 to 7.00	6.00 to 7.00	6.00 to 7.00	6.00 to 7.00	7.00 to 8.00	6.00 to 7.00	6.00 to 7.00	6.00 to 7.00	6.00 to 7.00	7.00 to 8.00			
C=CC(=O)N1CC[C@@]2(C1)OCN([C@H](C(=O)N[C@H]1Cc3cccc(c3)-c3ccc4c(c3)c(c(-c3cccnc3[C@H](C)OC)n4CC)CC(C)(C)COC(=O)[C@@H]3CCCN(N3)C1=O)C(C)C)C2=O (atropisomer, axis not shown) [Example A358]	5.00 to 6.00	6.00 to 7.00	5.00 to 6.00	6.00 to 7.00	5.00 to 6.00	5.00 to 6.00	5.00 to 6.00	5.00 to 6.00	6.00 to 7.00	7.00 to 8.00			
CO[C@@H](C)c1ncccc1-c1c2c3cc(ccc3n1CC(F)(F)F)-c1csc(n1)C[C@H](NC(=O)CCOC1CN(C(=O)C#CC(C)(C)N3CCC3)C1)C(=O)N1CCC[C@H](N1)C(=O)OCC(C)(C)C2 (atropisomer, axis not shown) [Example A363]	5.00 to 6.00	5.00 to 6.00	5.00 to 6.00	5.00 to 6.00	5.00 to 6.00	< 5.00	5.00 to 6.00	5.00 to 6.00	5.00 to 6.00	7.00 to 8.00			
C=CC(=O)N(C)C[C@H]1CCN1C(=O)N(C)[C@H](C(=O)N[C@H]1Cc2nc(cs2)-c2ccc3c(c2)c(c(-c2cccnc2[C@H](C)OC)n3CC)CC(C)(C)COC(=O)[C@@H]2CCCN(N2)C1=O)C(C)C (atropisomer, axis not shown) [Example A369]	6.00 to 7.00	6.00 to 7.00	6.00 to 7.00	6.00 to 7.00	7.00 to 8.00	5.00 to 6.00	6.00 to 7.00	5.00 to 6.00	6.00 to 7.00	7.00 to 8.00			
C=CC(=O)N1CC[C@H](C(=O)N(C)[C@H](C(=O)N[C@H]2Cc3cc(O)cc(c3)-c3ccc4c(c3)c(c(-c3ncn(C)c3[C@H](C)OC)n4CC)CC(C)(C)COC(=O)[C@@H]3CCCN(N3)C2=O)C(C)C)C1 [Example A301]	5.00 to 6.00		5.00 to 6.00	< 5.00	< 5.00	< 5.00	< 5.00		5.00 to 6.00			< 5.00	0.1 to 1
